Bridges are numbered along the chain shown (N, C = ends). [ ]: non-standard residue; d: D form. ADTZPA = (S)-2-amino-3-(1-dodecyl-1H-1,2,3-triazol-4-yl)propanoic acid; m‑xylylene = m-xylylene thioether bridge between Cys; Trp(7-aza) = N[C@@H](Cc1c[nH]c2ncccc12)C(=O)O; NMePhe(4-F) = CN[C@@H](Cc1ccc(F)cc1)C(=O)O; PEG4 = NCCOCCOCCOCCOCCC(=O)O; Phg = N[C@H](C(=O)O)c1ccccc1; Tle = CC(C)(C)[C@H](N)C(=O)O; NMeA = CN[C@@H](C)C(=O)O; Nva = CCC[C@H](N)C(=O)O; Sar = CNCC(=O)O
What follows are compounds tested on GMPPNP-loaded H-Ras or GTP-loaded K-Ras (assay: Fluorescence polarization competition assay with TAMRA-labeled probe R4007). Settings: 120 nM Ras, 30 nM probe R4007, 60 minutes at room temperature; read-out: Probe displacement (nM IC50).
Assay type: binding, human
Description: R4000 was evaluated for competition with a TAMRA labeled probe (R4007) based on peptide R4000. The assay was performed in 384-well black, non-binding plates (Greiner Bio-One, Monroe, N.C.). GMPPNP-loaded H-Ras or GTP-loaded K-Ras, diluted in FP assay buffer (20 mM Tris-HCl, pH 7.5, 50 mM NaCl, 5 mM MgCl2, 1 mM EDTA, 0.002% Triton-X-100) for a final concentration of 120 nM was incubated with 30 nM R4007 for 20 minutes at room temperature. R4000 was serially diluted, added to the assay and incubated for 60 minutes at room temperature. Fluorescence polarization was detected with a SpectraMax Paradigm plate reader (Molecular Devices, Sunnyvale, Calif.) using the Rhodamine FP detection cartridge (535 nm/595 nm). Data was analyzed using GraphPad Prism and Ki determined using One Site Ki Curve fitting model.
Peptides were evaluated for competition with R4007, a probe consisting of TAMRA-labeled R4000, using a fluorescence polarization (FP) competition assay. The assay was performed in 384-well black, non-binding plates (Greiner Bio-One, Monroe, N.C.). GMPPNP-loaded H-Ras or GTP- loaded K-Ras, diluted in FP assay buffer (20 mM Tris-HCl, pH 7.5, 50 mM NaCl, 5 mM MgCl2, 1 mM EDTA, 0.002% Triton-X-100) for a final concentration of 120 nM was incubated with 30 nM probe for 20 minutes at room temperature. Peptides were serially diluted, added to the assay and incubated for 60 minutes at room temperature. Fluorescence was detected with a SpectraMax Paradigm plate reader (Molecular Devices, Sunnyvale, Calif.) using the Rhodamine FP detection cartridge (535 nm/595 nm). Data was analyzed and Ki determined using a One Site Ki Curve fitting model. Percent inhibition for each data point was calculated relative to the maximal binding in test compound-free control wells (showing no probe displacement) and Ras-free control wells (showing no probe binding) and the half-maximal inhibitory concentration (IC50), based on probe displacement, was determined.

| IC50 | Compound |
| --- | --- |
| 21.4 nM | CC(=O)N[C@H]1CSCc2cccc(c2)CSC[C@@H](C(N)=O)NC(=O)CN(C)C(=O)[C@H](Cc2ccc(F)cc2)N(C)C(=O)[C@H](Cc2ccc(O)cc2)NC(=O)[C@H](Cc2c[nH]c3ncccc23)NC(=O)[C@H](c2ccccc2)NC(=O)[C@H](C)N(C)C(=O)[C@H](Cc2c[nH]cn2)NC(=O)[C@H](CCCCN)NC(=O)[C@H](C(C)(C)C)NC(=O)[C@H](Cc2ccc(O)cc2)NC1=O (relative stereo) [Compound R4112, ACE-CYS*-TYR-TBG-LYS-HIS-NMA-PHG-7AW-TYR-MFF-SAR-CYS*-NH2] |
| 278 nM | CCC[C@H](NC(C)=O)C(=O)N[C@H]1CSCc2cccc(c2)CSC[C@@H](C(=O)NCC(=O)NCC(=O)NCC(=O)N[C@@H](CS)C(=O)N[C@H](C(=O)N[C@H](C(=O)N[C@@H](CCSC)C(=O)O)[C@@H](C)CC)C(C)C)NC(=O)CN(C)C(=O)[C@H](Cc2ccc(F)cc2)N(C)C(=O)[C@H](Cc2ccc(O)cc2)NC(=O)[C@H](Cc2c[nH]c3ncccc23)NC(=O)[C@H](c2ccccc2)NC(=O)[C@H](C)N(C)C(=O)[C@H](Cc2c[nH]cn2)NC(=O)[C@H](CCCCN)NC(=O)[C@H](C(C)(C)C)NC(=O)[C@H](Cc2ccc(O)cc2)NC1=O (relative stereo) [Compound R4131, ACE-NVA-CYS*-TYR-TBG-LYS-HIS-NMA-PHG-7AW-TYR-MFF-SAR-CYS*-GLY-GLY-GLY-CYS-VAL-ILE-MET] |
| 148 nM | CCC[C@H](NC(C)=O)C(=O)N[C@H]1CSCc2cccc(c2)CSC[C@@H](C(=O)NCC(=O)NCC(=O)NCC(=O)N[C@@H](CS)C(=O)N[C@H](C(=O)N[C@H](C(=O)N[C@@H](CCSC)C(N)=O)[C@@H](C)CC)C(C)C)NC(=O)CN(C)C(=O)[C@H](Cc2ccc(F)cc2)N(C)C(=O)[C@H](Cc2ccc(O)cc2)NC(=O)[C@H](Cc2c[nH]c3ncccc23)NC(=O)[C@H](c2ccccc2)NC(=O)[C@H](C)N(C)C(=O)[C@H](Cc2c[nH]cn2)NC(=O)[C@H](CCCCN)NC(=O)[C@H](C(C)(C)C)NC(=O)[C@H](Cc2ccc(O)cc2)NC1=O (relative stereo) [Compound R4127, ACE-NVA-CYS*-TYR-TBG-LYS-HIS-NMA-PHG-7AW-TYR-MFF-SAR-CYS*-GLY-GLY-GLY-CYS-VAL-ILE-MET-NH2] |
| 227 nM | CCC[C@H](NC(C)=O)C(=O)N[C@H]1CSCc2cccc(c2)CSC[C@@H](C(=O)N[C@H](CO)C(=O)N[C@H](C)C(=O)N[C@@H](CCCCN)C(=O)N[C@@H](CSSC(C)(C)C)C(=O)N[C@H](C(=O)N[C@H](C(=O)N[C@@H](CCSC)C(=O)O)[C@@H](C)CC)C(C)C)NC(=O)CN(C)C(=O)[C@H](Cc2ccc(F)cc2)N(C)C(=O)[C@H](Cc2ccc(O)cc2)NC(=O)[C@H](Cc2c[nH]c3ncccc23)NC(=O)[C@H](c2ccccc2)NC(=O)[C@H](C)N(C)C(=O)[C@H](Cc2c[nH]cn2)NC(=O)[C@H](CCCCN)NC(=O)[C@H](C(C)(C)C)NC(=O)[C@H](Cc2ccc(O)cc2)N(C)C1=O (relative stereo) [Compound R4129, ACE-NVA-CYS*-NMY-TBG-LYS-HIS-NMA-PHG-7AW-TYR-MFF-SAR-CYS*-DSER-DALA-LYS-TDSPA-VAL-ILE-MET] |
| 5190 nM | ACE-NVA-CYS*-TYR-TBG-LYS-HIS-NMA-PHG-7AW-TYR-MFF-SAR-CYS*-PEG4PA-ADTZPA-NH2 (Ac-[Nva]CY[Tle]KH[NMeA][Phg][Trp(7-aza)]Y[NMePhe(4-F)][Sar]C-{PEG4-ADTZPA-NH2}; linker 2-13 via m‑xylylene) [Compound R4147, cyclized by a m-xylylene thioether bridge] |
| 9.45 nM | CCC[C@H](NC(C)=O)C(=O)N[C@H]1CSCc2cccc(c2)CSC[C@@H](C(=O)O)NC(=O)CN(C)C(=O)[C@H](Cc2ccc(F)cc2)N(C)C(=O)[C@H](Cc2ccc(O)cc2)NC(=O)[C@H](Cc2c[nH]c3ncccc23)NC(=O)[C@H](c2ccccc2)NC(=O)[C@H](C)N(C)C(=O)[C@H](Cc2c[nH]cn2)NC(=O)[C@H](CCCCN)NC(=O)[C@H](C(C)(C)C)NC(=O)[C@H](Cc2ccc(O)cc2)NC1=O (relative stereo) [Compound R4108, ACE-NVA-CYS*-TYR-TBG-LYS-HIS-NMA-PHG-7AW-TYR-MFF-SAR-CYS*] |
| 695 nM | CCC[C@H](NC(C)=O)C(=O)N[C@H]1CSCc2cccc(c2)CSC[C@@H](C(N)=O)NC(=O)CN(C)C(=O)[C@H](Cc2ccc(F)cc2)N(C)C(=O)[C@H](Cc2ccc(O)cc2)NC(=O)[C@H](Cc2c[nH]c3ncccc23)NC(=O)[C@H](c2ccccc2)NC(=O)[C@H](C)N(C)C(=O)[C@H](CN)NC(=O)[C@H](C)NC(=O)[C@H](C(C)(C)C)NC(=O)[C@H](Cc2ccc(O)cc2)NC1=O (relative stereo) [Compound R4141, ACE-NVA-CYS*-TYR-TBG-ALA-DAP-NMA-PHG-7AW-TYR-MFF-SAR-CYS*-NH2] |
| 1240 nM | C=CC(=O)NCCC[C@H]1C(=O)N[C@@H](c2ccccc2)C(=O)N[C@@H](Cc2c[nH]c3ncccc23)C(=O)N[C@@H](Cc2ccc(O)cc2)C(=O)N(C)[C@@H](Cc2ccc(F)cc2)C(=O)N(C)CC(=O)N[C@H](C(N)=O)CSCc2cccc(c2)CSC[C@H](NC(=O)[C@H](CCC)NC(C)=O)C(=O)N[C@@H](Cc2ccc(O)cc2)C(=O)N[C@@H](C(C)(C)C)C(=O)N[C@@H](C)C(=O)N[C@@H](Cc2c[nH]cn2)C(=O)N1C (relative stereo) [Compound R4142, ACE-NVA-CYS*-TYR-TBG-ALA-HIS-MORAC-PHG-7AW-TYR-MFF-SAR-CYS*-NH2] |
| 1.45 nM | CCC[C@H](NC(C)=O)C(=O)N[C@H]1CSCc2cccc(c2)CSC[C@@H](C(N)=O)NC(=O)[C@H](C)N(C)C(=O)[C@H](Cc2ccc(F)cc2)N(C)C(=O)[C@H](Cc2ccc(O)cc2)NC(=O)[C@H](Cc2c[nH]c3ncccc23)NC(=O)[C@H](c2ccccc2)NC(=O)[C@H](C)N(C)C(=O)[C@H](Cc2c[nH]cn2)NC(=O)[C@H](CCCCN)NC(=O)[C@H](C(C)(C)C)NC(=O)[C@H](Cc2ccc(O)cc2)NC1=O (relative stereo) [Compound R4101, ACE-NVA-CYS*-TYR-TBG-LYS-HIS-NMA-PHG-7AW-TYR-MFF-NMA-CYS*-NH2] |
| 7.92 nM | CCC[C@H](N)C(=O)N[C@H]1CSCc2cccc(c2)CSC[C@@H](C(N)=O)NC(=O)CN(C)C(=O)[C@H](Cc2ccc(F)cc2)N(C)C(=O)[C@H](Cc2ccc(O)cc2)NC(=O)[C@H](Cc2c[nH]c3ncccc23)NC(=O)[C@H](c2ccccc2)NC(=O)[C@H](C)N(C)C(=O)[C@H](Cc2cnc[nH]2)NC(=O)[C@H](CCCCN)NC(=O)[C@H](C(C)(C)C)NC(=O)[C@H](Cc2ccc(O)cc2)NC1=O (relative stereo) [Compound R4002, NVA-CYS*-TYR-TBG-LYS-HIS-NMA-PHG-7AW-TYR-MFF-SAR-CYS*-NH2] |
| 36400 nM | CCC[C@H](NC(C)=O)C(=O)N[C@H]1CSCc2cccc(c2)CSC[C@@H](C(N)=O)NC(=O)CN(C)C(=O)[C@H](Cc2ccc(F)cc2)N(C)C(=O)[C@H](Cc2ccc(O)cc2)NC(=O)[C@H](Cc2c[nH]c3ncccc23)NC(=O)[C@@H](c2ccccc2)NC(=O)[C@H](C)N(C)C(=O)[C@H](C)NC(=O)[C@H](CCCCN)NC(=O)[C@H](C(C)(C)C)NC(=O)[C@H](Cc2ccc(O)cc2)NC1=O (relative stereo) [Compound R4153, ACE-NVA-CYS*-TYR-TBG-LYS-ALA-NMA-DPHG-7AW-TYR-MFF-SAR-CYS*-NH2] |
| 392 nM | C=CC(=O)NC[C@@H]1NC(=O)[C@H](C)NC(=O)[C@H](C(C)(C)C)NC(=O)[C@H](Cc2ccc(O)cc2)NC(=O)[C@@H](NC(=O)[C@H](CCC)NC(C)=O)CSCc2cccc(c2)CSC[C@@H](C(N)=O)NC(=O)CN(C)C(=O)[C@H](Cc2ccc(F)cc2)N(C)C(=O)[C@H](Cc2ccc(O)cc2)NC(=O)[C@H](Cc2c[nH]c3ncccc23)NC(=O)[C@H](c2ccccc2)NC(=O)[C@H](C)N(C)C1=O (relative stereo) [Compound R4136, ACE-NVA-CYS*-TYR-TBG-ALA-DABAC2-NMA-PHG-7AW-TYR-MFF-SAR-CYS*-NH2] |

| Compound | IC50 |
| --- | --- |
| CCC[C@H](NC(C)=O)C(=O)N[C@H]1CSCc2cccc(c2)CSC[C@@H](C(=O)NCC(=O)N[C@@H](CS)C(=O)N[C@@H](CCSC)C(=O)N[C@@H](CO)C(=O)N[C@@H](CS)C(=O)N[C@@H](CCCCN)C(=O)N[C@@H](CS)C(=O)N[C@H](C(=O)N[C@@H](CC(C)C)C(=O)N[C@@H](CO)C(N)=O)C(C)C)NC(=O)CN(C)C(=O)[C@H](Cc2ccc(F)cc2)N(C)C(=O)[C@H](Cc2ccc(O)cc2)NC(=O)[C@H](Cc2c[nH]c3ncccc23)NC(=O)[C@H](c2ccccc2)NC(=O)[C@H](C)N(C)C(=O)[C@H](Cc2c[nH]cn2)NC(=O)[C@H](CCCCN)NC(=O)[C@H](C(C)(C)C)NC(=O)[C@H](Cc2ccc(O)cc2)NC1=O (relative stereo) [Compound R4116, ACE-NVA-CYS*-TYR-TBG-LYS-HIS-NMA-PHG-7AW-TYR-MFF-SAR-CYS*-GLY-CYS-MET-SER-CYS-LYS-CYS-VAL-LEU-SER-NH2] | 35.7 nM |

Source: patent publication US10954287B2, “Ras binding peptides and methods of use” (Ra Pharmaceuticals, Inc., priority 2016, dated 2021)
